# Values of other authors as cited in patent publication US6514973B1, “Compositions for the treatment and prevention of neurological and pathopsychological diseases” (Merck Patent Geseilschaft Mit Beschrankter Haftung, priority 1998, dated 2003).
substance,measurement,value
Phosphatidylserines,time until appearance in the blood after oral administration,about 30 minutes
